Reference: BindingDB's records for patent WO2022070069 (JANSSEN BIOTECH, INC., 2022)

Molecular target: Dihydroorotate dehydrogenase (quinone), mitochondrial (Homo sapiens, UniProt Q02127)
Experiment: DHODH enzymatic assay
Procedure: To detect DHODH enzyme activities, dichloroindophenol (DCIP) is added as the final electron acceptor in the assay. DCIP can accept electrons from the reduced coenzyme Q generated in the assay, or from dihydroorotate (DHO) via FMN by binding presumably to the ubiquinone pocket. DCIP solutions are blue, with an intense absorbance around 600 nm, but becomes colorless upon reduction (J. Biol. Chem. (1986) 261, 11386). The assay buffer contained […], pH 7.5, 150 mM NaCl, 0.5 mM EDTA, and 0.1% Triton X-100 in MilliQ water. Substrate consisting of 20 mM DHO, 5mM CoQ6, and 1mM DCIP in assay buffer, initiates the reaction. The assay is run in end-point mode by quenching the reaction with the potent DHODH inhibitor brequinar. Absorbance measurements were obtained using the BMG Phera Star plate-reading spectrophotomer. Purified human DHODH was purchased from Proteros (cat. No. PR-0044). Chemicals were purchased from Sigma-Aldrich, Teknova, and Avanti Polar Lipids. Liquid handling was performed using Labcyte Echo and Formulatrix Tempest.

Chain of Dihydroorotate dehydrogenase (quinone), mitochondrial (Q02127 whole entry): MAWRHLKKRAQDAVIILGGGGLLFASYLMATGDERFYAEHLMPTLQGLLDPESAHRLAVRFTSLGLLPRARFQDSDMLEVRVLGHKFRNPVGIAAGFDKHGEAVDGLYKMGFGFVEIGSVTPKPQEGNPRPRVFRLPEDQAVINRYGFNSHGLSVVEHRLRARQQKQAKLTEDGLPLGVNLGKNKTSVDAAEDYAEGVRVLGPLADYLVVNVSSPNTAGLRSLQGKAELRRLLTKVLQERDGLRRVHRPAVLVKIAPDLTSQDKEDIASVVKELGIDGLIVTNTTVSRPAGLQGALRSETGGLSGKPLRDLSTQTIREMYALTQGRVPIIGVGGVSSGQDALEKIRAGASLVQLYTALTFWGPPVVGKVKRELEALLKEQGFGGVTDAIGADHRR

Row | IC50 [pM] | Compound
1 | 380 | Cc1cn(-c2cc(O[C@@H](C)C(F)(F)F)c(C(=O)Nc3c(C)n[nH]c3Cl)cc2F)nc1C(C)(C)O [WO2022070069, Example 6]
2 | 480 | Cc1cn(-c2cc(O[C@@H](C)C(F)(F)F)c(C(=O)Nc3c(F)cccc3Cl)cc2F)nc1[C@@H](C)O (relative stereo) [WO2022070069, Example 1]
3 | 260 | Cc1cn(-c2cc(O[C@@H](C)C(F)(F)F)c(C(=O)Nc3c(C)n[nH]c3Cl)cc2F)nc1[C@H](C)O (relative stereo) [WO2022070069, Example 5]
4 | 220 | Cc1cn(-c2cc(O[C@@H](C)C(F)(F)F)c(C(=O)Nc3c(C)n[nH]c3Cl)cc2F)nc1[C@@H](C)O (relative stereo) [WO2022070069, Example 4]
5 | 500 | Cc1cn(-c2cc(O[C@@H](C)C(F)(F)F)c(C(=O)Nc3c(F)cccc3Cl)cc2F)nc1C(C)(C)O [WO2022070069, Example 3]
6 | 300 | Cc1cn(-c2cc(O[C@@H](C)C(F)(F)F)c(C(=O)Nc3c(F)cccc3Cl)cc2F)nc1[C@H](C)O (relative stereo) [WO2022070069, Example 2]
